Structures are written as SMILES. pIC50: −log10 of the molar value. Counter-ions that a name gives are not always drawn.

The test deals with HPK1 (Homo sapiens (Human), UniProt Q92918). Put plainly: HPK1 biochemical enzyme assay (microfluidic mobility shift assay). To be noted: 1.5 nM HPK1, ATP 1 mM final, 30 min preincubation, 60 min at RT, Caliper EZ Reader; read-out: HPK1 1000UMATP caliper IC50. An outline of the steps: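 Mobility shift readout of HPK1 activity after a 60 min RT reaction with 1 mM ATP, 1 μM substrate and 5 mM MgCl2. Enzyme/substrate mix was first exposed to compounds for 30 min, using ten-point curves topping at 3 μM final.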
Chain of HPK1 (Q92918 whole entry): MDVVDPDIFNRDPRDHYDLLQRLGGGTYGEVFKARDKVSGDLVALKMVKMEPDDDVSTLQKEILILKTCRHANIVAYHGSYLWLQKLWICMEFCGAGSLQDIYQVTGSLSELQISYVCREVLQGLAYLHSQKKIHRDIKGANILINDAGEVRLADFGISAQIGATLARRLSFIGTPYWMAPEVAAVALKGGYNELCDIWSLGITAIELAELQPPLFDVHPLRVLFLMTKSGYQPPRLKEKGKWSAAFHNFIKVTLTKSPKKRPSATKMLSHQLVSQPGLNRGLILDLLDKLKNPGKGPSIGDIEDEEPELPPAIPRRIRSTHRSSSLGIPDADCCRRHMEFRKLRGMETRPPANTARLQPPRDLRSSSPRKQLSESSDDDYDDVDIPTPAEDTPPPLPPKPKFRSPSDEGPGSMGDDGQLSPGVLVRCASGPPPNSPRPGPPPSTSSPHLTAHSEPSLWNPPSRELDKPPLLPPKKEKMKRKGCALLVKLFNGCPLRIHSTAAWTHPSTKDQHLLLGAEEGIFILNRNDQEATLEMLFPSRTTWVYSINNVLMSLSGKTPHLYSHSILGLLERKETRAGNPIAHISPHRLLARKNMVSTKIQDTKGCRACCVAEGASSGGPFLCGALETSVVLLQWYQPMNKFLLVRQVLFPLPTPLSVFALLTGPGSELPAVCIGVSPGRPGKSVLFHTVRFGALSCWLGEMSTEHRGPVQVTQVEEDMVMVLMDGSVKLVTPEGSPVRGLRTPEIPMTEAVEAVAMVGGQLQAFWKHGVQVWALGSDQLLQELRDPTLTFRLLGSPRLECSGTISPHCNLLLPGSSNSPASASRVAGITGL
Regarding `O=C1NCc2c(-c3cnn4c3CCCC4)ccc(Nc3ccc(N4CCC(O)CC4)cn3)c21` [I-284, 7-((5-(4-hydroxy-piperidin-1-yl)pyridin-2-yl)amino)-4-(4,5,6,7-tetrahydropyra-zolo[1,5-a]pyridin-3-yl)isoindolin-1-one], the negative-log IC50 (pIC50) is greater than 7.00.

As to `Cn1ccc2c(-c3ncc(Nc4cccc(C5(C)CCNCC5)n4)c4c3CNC4=O)ccnc21` [I-430, 4-(1-methyl-1H-pyrrolo[2,3-b]pyridin-4-yl)-7-((6-(4-methylpiperidin-4-yl)pyridin-2-yl)amino)-2,3-dihydro-1H-pyrrolo[3,4-c]pyridin-1-one], the negative-log IC50 (pIC50) was less than 6.00.

For `CN(C)CCOC1(c2ccc(Nc3ccc(-c4cnc5cc(F)ccn45)c4c3C(=O)NC4)nc2)CCOCC1` [I-669, 7-((5-(4-(2-(dimethylami-no)ethoxy)tetra-hydro-2H-pyran-4-yl)pyridin-2-yl)amino)-4-(7-fluoroimidazo [1,2-a]pyridin-3-yl)isoindolin-1-one], the pIC50 is greater than 7.00.

Consider `O=C1NCc2c(-c3cnc4cc(F)ccn34)ccc(Nc3ccc(N4CCO[C@@H](CO)C4)cn3)c21` [I-450, 4-(7-fluoroimidazo [1,2-a]pyridin-3-yl)-7-[[5-[(2R)-2-(hydroxymeth-yl)morpholin-4-yl]-2-pyridyl]amino] isoindolin-1-one], for which the pIC50 is greater than 7.00.

On to `Cn1ccc2c(-c3ncc(Nc4ccc(N5CCC[C@@H](C(C)(C)O)C5)cn4)c4c3CNC4=O)cccc21` [I-223, 7-[[5-[(3R)-3-(1-hydroxy-1-methyl-ethyl)-1-piperipyl]-2-pyridyl]-amino]-4-(1-methylindol-4-yl)-2,3-dihydropyrrolo [3,4-c]pyridin-1-one], for which the pIC50 is greater than 7.00.

On to `O=C1NCc2c(-c3ccnc4[nH]ccc34)ncc(Nc3ccc(N4CCC(O)CC4)cn3)c21` [I-193, 7-[[5-(4-hydroxy-1-piperidyl)-2-pyridyl]-amino]-4-(1H-pyrrolo[2,3-b]pyridin-4-yl)-2,3-dihydropyrrolo [3,4-c]pyridin-1-one], for which the negative-log IC50 (pIC50) was greater than 7.00.

For the compound `Cn1ccc2c(-c3ncc(Nc4cncc(N5CC[C@@H]6CNC[C@@H]65)n4)c4c3CNC4=O)ccnc21` (single isomer, unassigned) [I-661], the pIC50 was 6.00 to 7.00.

In the case of `Cn1ccc2c(-c3ncc(Nc4cccc(N5CC[C@H](N6CCCC6)C5)n4)c4c3CNC4=O)ccnc21` [I-443, (S)-7-((6-([1,3-bipynolidin]-1′-yl)pyridin-2-yl)amino)-4-(1-methyl-1H-pyrrolo[2,3-b]pyridin-4-yl)-2,3-dihydro-1H-pyrrolo[3,4-c]pyridin-1-one], the pIC50 is greater than 7.00.

Regarding `Cn1ccc2c(-c3ncc(Nc4cccc(C5CNC5)n4)c4c3CNC4=O)ccnc21` [I-415, 7-((6-(azetidin-3-yl)pyridin-2-yl)amino)-4-(1-methyl-1H-pyrrolo[2.3-b]pyridin-4-yl)-2,3-dihydro-1H-pyrrolo[3,4-c]pyridin-1-one], the negative-log IC50 (pIC50) is greater than 7.00.

For the compound `Cn1ccc2c(-c3ccc(Nc4ccc(N5CCOCC5)cn4)c4c3CNC4=O)ccnc21` [I-110, 4-(1-methylpyrrolo [2,3-b]pyridin-4-yl)-7-[(5-morpholino-2-pyridyl)amino] isoindolin-1-one], the negative-log IC50 (pIC50) was greater than 7.00.

As to `Cc1ccn2c(-c3ccc(Nc4ccc(C5(O)CCOCC5)cn4)c4c3CNC4=O)cnc2c1F` [I-587, 4-(8-fluoro-7-methylimidazo [1,2-a]pyridin-3-yl)-7-((5-(4-hydroxytetra-hydro-2H-pyran-4-yl)pyridin-2-yl)amino)isoin-dolin-1-one], the negative logarithm of the IC50 (pIC50) was greater than 7.00.

Consider `O=C1NCc2c(-c3ccnc4ccsc34)ccc(Nc3ccc(N4CCNCC4)cn3)c21` [I-107, 7-[(5-piperazin-1-yl-2-pyridyl)amino]-4-thieno[3,2-b]pyridin-7-yl-isoindolin-1-one], for which the pIC50 is greater than 7.00.

`CN(C)Cc1nc(Nc2ccc(-c3cnc4cc(F)ccn34)c3c2C(=O)NC3)ccc1N1CCC(C)(O)CC1` [I-535, 7-[[6-[(dimethylamino)-methyl]-5-(4-hydroxy-4-methyl-1-piperidyl)-2-pyridyl]amino]-4-(7-fluoroimidazo [1,2-a]pyridin-3-yl)isoindolin-1-one Formic acid salt]: the pIC50 was greater than 7.00.

For the compound `O=C1NCc2c(-c3cnc4cc(F)ccn34)ccc(Nc3ccc([C@@H]4CCOC4)c(CNCC(F)(F)F)n3)c21` [I-751, (S)-4-(7-fluoroimidazo [1,2-a]pyridin-3-yl)-7-((5-(tetrahydrofuran-3-yl)-6-(((2,2,2-trifluoroethyl)amino)methyl)pyridin-2-yl)amino)isoin-dolin-1-one], the negative-log IC50 (pIC50) is greater than 7.00.

`O=C1NCc2c(-c3cnc4cc(F)ccn34)ccc(Nc3ccc(N4CCC(C(=O)O)CC4)cn3)c21` [I-203, l-[6-[[7-(7-fluoroimidazo [1,2-a]pyridin-3-yl)-3-oxo-isoindolin-4-yl]amino]-3-pyridyl]piper-idine-4-carboxylic acid]: the pIC50 is greater than 7.00.

Values taken from patent US11021481B2, “Substituted isoindolin-1-ones and 2,3-dihydro-1h-pyrrolo[3,4-c]pyridin-1-ones as HPK1 antagonists” (Nimbus Saturn, Inc., priority 2019, dated 2021).
